Patent US7217722B2 (Kirin Beer Kabushiki Kaisha, priority 2000, dated 2007)
pIC50: −log10 of the molar value.

Target: Rho kinase (fused protein of bovine Rho kinase catalyst region and glutathione S-transferase) (Bos taurus, UniProt Q28021)
Assay: Rho kinase inhibitory activity (phosphorylation of S6 231–239 substrate, γ32P-ATP)
Format: biochemical
Settings: concentration inhibiting substrate phosphorylation by 50%
Method: This permits the substrate to be labeled with the radioisotope.
Thereafter, the substrate was adsorbed to a filter paper. ATP was washed away with a phosphoric acid solution, and the amount of the phosphorylated substrate was then measured with a liquid scintillation counter.

Rho kinase (fused protein of bovine Rho kinase catalyst region and glutathione S-transferase), sequence (Q28021 92-354 limits assumed): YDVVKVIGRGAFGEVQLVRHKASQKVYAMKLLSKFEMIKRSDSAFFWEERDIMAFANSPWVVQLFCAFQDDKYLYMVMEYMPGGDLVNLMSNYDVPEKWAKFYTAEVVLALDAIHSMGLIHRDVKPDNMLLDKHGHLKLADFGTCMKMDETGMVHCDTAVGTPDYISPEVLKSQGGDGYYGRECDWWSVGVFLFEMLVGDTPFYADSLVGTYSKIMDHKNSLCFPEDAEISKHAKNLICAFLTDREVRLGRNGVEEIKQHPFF

SMILES | pIC50
O=C(NCc1c(Cl)ccc(Cl)c1Cl)Nc1ccncc1 [Example 55, N′-(4-Pyridyl)-N-(2,3,6-trichlorobenzyl)urea] | 5.98
O=C(NCc1ccccc1)Nc1ccncc1 [Example 92, N-Benzyl-N′-(4-pyridyl)urea] | 4.99
c1ccc(COc2ccc(CN3CCC(Nc4ccc5[nH]ncc5c4)CC3)cc2)cc1 [Example 142, N-{1-[4-(Benzyloxy)benzyl]-4-piperidyl}-N-(1H-5-indazolyl)amine] | 6.18
O=C(NCc1ccccc1)Nc1ccc2c(c1)C(=O)NC2=O [Example 73, N-Benzyl-N′-(1,3-dioxo-2,3-dihydro-1H-5-isoindolyl)urea] | 6.39
O=C(Cc1cccc([N+](=O)[O-])c1)Nc1ccc2[nH]ncc2c1 [Example 48, N1-(1H-5-Indazolyl)-2-(3-nitrophenyl)acetamide] | 6.72
Fc1ccc(CN2CCC(Nc3ccc4[nH]ncc4c3)C2)cc1 (stereo not shown) [Example 154, N-[1-(4-Fluorobenzyl)tetrahydro-1H-3-pyrrolyl]-N-(1H-5-indazolyl)amine] | 7.08
COc1cc(CNC(=O)Nc2ccc3[nH]ncc3c2)ccc1O [Example 113, N-(4-Hydroxy-3-methoxybenzyl)-N′-(1H-5-indazolyl)urea] | 6.31
Cc1ccc(CN2CCC(Nc3ccc4[nH]ncc4c3)C2)cc1 (stereo not shown) [Example 157, N-(1H-5-Indazolyl)-N-[1-(4-methylbenzyl)tetrahydro-1H-3-pyrrolyl]amine] | 7.66
O=C(NCc1c(F)cccc1C(F)(F)F)Nc1ccc2c(c1)C(=O)NC2=O [Example 91, N-(1,3-Dioxo-2,3-dihydro-1H-5-isoindolyl)-N′-[2-fluoro-6-(trifluoromethyl)benzyl]urea] | 7.00
O=C(NCc1c(F)ccc(F)c1F)Nc1ccncc1 [Example 108, N-(Pyridyl)-N′-(2,3,6-trifluorobenzyl)urea] | 5.42
NC(=O)c1ccc(NC(=O)Nc2c(Cl)cccc2Cl)cc1 [Example 65, 4-{[(2,6-Dichloroanilino)carbonyl]amino}-benzamide] | 5.05
O=C(Cc1ccc([N+](=O)[O-])cc1)Nc1ccc2[nH]ncc2c1 [Example 49, N1-(1H-5-Indazolyl)-2-(4-nitrophenyl)acetamide] | 6.29
COc1ccc(CN2CCC(Nc3ccc4[nH]ncc4c3)C2)cc1 (stereo not shown) [Example 156, N-(1H-5-Indazolyl)-N-[1-(4-methoxybenzyl)tetrahydro-1H-3-pyrrolyl]amine] | 8.70
O=C(CCc1ccc(O)cc1)Nc1ccc2[nH]ncc2c1 [Example 47, N1-(1H-5-Indazolyl)-3-(4-hydroxyphenyl)-propaneamide] | 6.13
O=C(COc1c(Cl)cc(F)cc1Cl)Nc1ccncc1 [Example 24, N1-(4-Pyridyl)-2-(2,6-dichloro-4-fluorophenoxy)acetamide] | 6.32
c1ccc2cc(CN3CCC(Nc4ccc5[nH]ncc5c4)CC3)ccc2c1 [Example 116, N-(1H-5-Indazolyl)-N-[1-(2-naphthylmethyl)-4-piperidyl]amine] | 6.87
O=C(Nc1ccc2[nH]ncc2c1)C1CCCCC1 [Example 33] | 6.33
O=C(NCc1ccc(Cl)cc1Cl)Nc1ccc2c(c1)C(=O)NC2=O [Example 88, N-(2,4-Dichlorobenzyl)-N′-(1,3-dioxo-2,3-dihydro-1H-5-isoindolyl)urea] | 6.36
O=C(NCc1ccccc1Cl)Nc1ccc2[nH]ncc2c1 [Example 104, N-(2-Chlorobenzyl)-N′-(1H-5-indazolyl)urea] | 6.62
O=C(Nc1ccc2[nH]ncc2c1)Nc1c(Cl)cccc1Cl [Example 13, N-(2,6-Dichlorophenyl)-N′-(1H-5-indazolyl)urea] | 6.01

SMILES | pIC50
Oc1ccc(CN2CCC(Nc3ccc4[nH]ncc4c3)CC2)cc1 [Example 145, 4-{[4-(1H-5-Indazolylamino)piperidino]methyl}phenol] | 6.54
O=C(COc1c(Cl)cccc1Cl)Nc1ccc2[nH]ncc2c1 [Example 14, N1-(1H-5-Indazolyl)-2-(2,6-dichlorophenoxy)acetamide] | 5.94
CCc1ccc(CN2CCC(Nc3ccc4[nH]ncc4c3)CC2)cc1 [Example 120, N-[1-(4-Ethylbenzyl)-4-piperidyl]-N-(1H-5-indazolyl)amine] | 6.62
O=C(/C=C/c1ccc(O)cc1)Nc1ccc2[nH]ncc2c1 [Example 37, N1-(1H-5-Indazolyl)-(E)-3-(4-hydroxyphenyl)-2-propeneamide] | 6.52
Cc1cc(Cl)c(OCC(=O)Nc2ccncc2)c(Cl)c1 [Example 30, N1-(4-Pyridyl)-2-(2,6-dichloro-4-methylphenoxy)acetamide] | 5.94
Nc1ccccc1CNC(=O)Nc1ccc2c(c1)C(=O)NC2=O [Example 87] | 6.74
O=C(NCc1ccc(Cl)cc1Cl)Nc1ccncc1 [Example 53, N-(2,4-Dichlorobenzyl)-N′-(4-pyridyl)urea] | 5.38
COC(=O)c1cccc(CN2CCC(Nc3ccc4[nH]ncc4c3)CC2)c1 [Example 147, Methyl 3-{[4-(1H-5-indazolylamino)piperidino]methyl}benzoate] | 6.34
O=C(Nc1ccncc1)Nc1c(F)cccc1Cl [Example 18, N-(2-Chloro-6-fluorophenyl)-N′-(4-pyridyl)urea] | 5.54
O=C(COc1ccc(O)cc1)Nc1ccc2[nH]ncc2c1 [Example 51, N1-(1H-5-Indazolyl)-2-(4-hydroxyphenoxy)acetamide] | 6.34
O=C(NCc1c(F)ccc(F)c1F)Nc1ccc2c(c1)C(=O)NC2=O [Example 109, N-(1,3-Dioxo-2,3-dihydro-1H-5-isoindolyl)-N′-(2,3,6-trifluorobenzyl)urea] | 6.79
O=C(Nc1ccc2c(c1)C(=O)NC2=O)Nc1c(Cl)cccc1Cl [Example 67, N-(2,6-Dichlorophenyl)-N′-(1,3-dioxo-2,3-dihydro-1H-isoindolyl)urea] | 5.72
O=C(NCc1ccccc1Cl)Nc1ccc2c(c1)C(=O)NC2=O [Example 82, N-(2-Chlorobenzyl)-N′-(1,3-dioxo-2,3-dihydro-1H-5-isoindolyl)urea] | 6.54
O=C(COc1c(Cl)cccc1Cl)Nc1ccncc1 [Example 3, N1-(4-Pyridyl)-2-(2,6-dichlorophenoxy)acetamide] | 6.04
O=C(NCc1c(F)cccc1F)Nc1ccncc1 [Example 61, N-(2,6-Difluorobenzyl)-N′-(4-pyridyl)urea] | 5.16
O=C(NCc1c(F)c(F)c(F)c(F)c1F)Nc1ccc2c(c1)C(=O)NC2=O [Example 98, N-(1,3-Dioxo-2,3-dihydro-1H-5-isoindolyl)-N′-(2,3,4,5,6-pentafluorobenzyl)urea] | 6.39
O=[N+]([O-])c1ccc(CN2CCCC(Nc3ccc4[nH]ncc4c3)C2)cc1 (stereo not shown) [Example 169, N-(1H-5-Indazolyl)-N-[1-(4-nitrobenzyl)-3-piperidyl]amine] | 7.06
Cc1ccc(CN2CCC(Nc3ccc4[nH]ncc4c3)CC2)cc1[N+](=O)[O-] [Example 124] | 6.62
O=C(NCC1CCCCC1)Nc1ccc2c(c1)C(=O)NC2=O [Example 76, N-Cyclohexylmethyl-N′-(1,3-dioxo-2,3-dihydro-1H-5-isoindolyl)urea] | 5.77
O=C(NCc1c(Cl)ccc(Cl)c1Cl)Nc1ccc2[nH]ncc2c1 [Example 101, N-(1H-5-Indazolyl)-N′-(2,3,6-trichloro-benzyl)urea] | 5.74
